{"source": "patent US20220265766A1", "about": "“ANTIMICROBIAL THERAPY THROUGH THE COMBINATION OF PORE-FORMING AGENTS AND HISTONES” (THE REGENTS OF THE UNIVERSITY OF CALIFORNIA, priority 2019, published 2022)", "key": {"E. coli [1]": {"tested_on": "E. coli", "format": "cell-based, Escherichia coli", "conditions": "1 mM magnesium; 10 μg/mL H2A, 2 μM LL-37, 10 μM MAG2, 1 μg/mL PMB, 10 μg/mL Kan, 10 μg/mL Cam, alone or combined", "protocol": "Growth curve experiments were performed using a Synergy HTX multi-mode plate reader and sterile, tissue-culture treated, clear bottom, black polystyrene 96-well microplates (Corning). The temperature setpoint was 37° C. and preheated before beginning measurements. Each well contained 200 μL of total bacterial solution. For experiments performed with stationary phase bacteria, overnight cultures of bacteria were grown overnight to saturation, diluted 1:1000 into minimal medium with 1 μM or 1 mM MgSO4, and supplemented with H2A, LL-37, kanamycin, chloramphenicol, or polymyxin B. For experiments performed with exponential phase bacteria, overnight cultures of bacteria were sub-cultured in fresh minimal medium containing 1 mM MgSO4 and grown to an optical density at 600 nm (OD600) of 0.2. Exponential-phase bacteria were diluted 1:20 into fresh minimal medium with 1 μM or 1 mM MgSO4, and supplemented with H2A, LL-37, magainin-2, kanamycin, chloramphenicol, or polymyxin B. After adding antimicrobial agents, bacterial cultures were immediately added to the 96-well microplates for growth measurements. Growth curves were constructed by taking measurements every 15 minutes for up to 48 hours. Shaking was set to continuous orbital, with a frequency of 282 cpm (3 mm). The read speed was normal, with a 100 msec delay, and 8 measurements per data points."}, "E. coli [2]": {"tested_on": "E. coli", "assay": "Fluorescent histone and fluorescent LL-37 uptake in E. coli", "format": "cell-based, Escherichia coli", "conditions": "1 hour; for AF-H2A uptake (cellular fluorescence): 10 μg/mL AF-H2A alone or with 10 μg/mL Cam, 50 μg/mL Kan, 2 μM LL-37, 1 μg/mL PMB or 10 μM MAG2, 1 mM magnesium", "protocol": "E. coli strain MG1655 or S. aureus strain RN4220 was cultured to an OD600 of 0.2, and diluted 1:20 into fresh minimal medium containing 1 mM MgSO4. H2A uptake in E. coli was measured by adding 10 μg/mL AF-H2A (1% Alexa Fluor-labeled H2A mixed with 99% unlabeled H2A) and 10 μg/mL Cam, 50 μg/mL Kan, 2 μM LL-37, 1 μg/mL PMB, or 10 μM MAG2, incubating for 1 hour, and analyzing using fluorescence microscopy. H2A uptake in S. aureus was measured using same concentrations of AF-H2A and LL-37. To measure uptake in low ionic conditions, E. coli was grown to OD600 of 0.2 in minimal medium containing 1 mM MgSO4, and diluted 1:20 into fresh minimal medium containing 1 μM or 1 mM MgSO4. H2A uptake in E. coli was measured by adding 10 μg/mL AF-H2A (1% Alexa Fluor-labeled H2A mixed with 99% unlabeled H2A), incubating for up to 3 hours, and analyzing using fluorescence microscopy. LL-37 uptake in both bacteria was measured by adding 1 μM fluorescently-labeled LL-37 (1% 5-FAM-LC-LL-37 (Anaspec) mixed with 99% unlabeled LL-37) or additionally with 10 μg/mL unlabeled H2A, incubating for 1 hour, and imaging using fluorescence microscopy. Time-lapse measurements of LL-37 uptake in E. coli were performed by adding 2 μM fluorescently-labeled LL-37 (3% 5-FAM-LC-LL-37 mixed with 97% unlabeled LL-37) or additional 10 μg/mL unlabeled H2A, immobilizing on agarose pads, and imaging using fluorescence microscopy. Cell membranes were visualized by adding 1.6 μM FM4-64 (MilliporeSigma, Burlington, Mass.), immobilizing on agarose pads, and imaging using fluorescence microscopy."}, "E. coli [3]": {"tested_on": "E. coli", "assay": "Timelapse of E. coli recovery and time course of membrane healing (CFP, PI)", "format": "cell-based, Escherichia coli", "conditions": "then washed", "protocol": "To quantify the time-course of recovery in E. coli treated with LL-37 alone or with the synergistic combination of LL-37 and H2A, MAL204 was cultured to mid-exponential phase in MinA minimal medium, added 1 μM LL-37 or 1 μM LL-37 with 10 μg/mL H2A, and incubated for 1 hour. The solution was filtered through a 0.22 μm filter to remove excess LL-37 and H2A and cells were resuspended in fresh minimal medium. Cells were immobilized on a 1% agarose pad and imaged over an hour time period.\nTo quantify the time-course of membrane repair in bacteria treated with H2A alone, AMPs alone, or the synergistic combination of AMPs and H2A, MAL204 was grown to mid-exponential phase in MinA minimal medium, diluted 1:20 with 10 μg/mL H2A, 1 μM LL-37, 1 μM LL-37 with 10 μg/mL H2A, 10 μM MAG2, or 1 μM MAG2 with 10 μg/mL H2A, and incubated for 1 hour. […] Cells were allowed to recover for 0, 30, 60 minutes before the addition of 30 μM propidium iodide for 15 minutes prior to performing fluorescence microscopy. Intracellular propidium iodide fluorescence and CFP fluorescence were quantified. To quantify the time-course of membrane repair in bacteria treated with H2A in low and physiological environments, MAL204 was grown to mid-exponential phase, diluted 1:20 into minimal media with 1 μM or 1 mM MgSO4, with or without 10 μg/mL H2A, and incubated for 3 hours. […]"}, "E. coli genomic DNA": {"tested_on": "E. coli genomic DNA", "assay": "Non-denaturing nucleic acid PAGE", "format": "binding, Escherichia coli", "conditions": "1 μg DNA with 0-1.4 μg H2A or LL-37", "protocol": "Overnight MG1655 cultures were grown to saturation in Minimal. DNA purification was performed using a Miniprep kit (Qiagen, Germantown, Md.). A three-second sonication step was performed after lysis to isolate genomic DNA.\n10 μL mixtures containing 1 μg purified DNA from MG1655 were incubated with 0-1.4 μg Histone H2A or LL-37 for 25 minutes at 25° C. Gel loading sample buffer (5×, Bio-Rad, Hercules, Calif.) was added to a final concentration of 1× and the products were separated by native PAGE on a 5% TBE gel (Bio-Rad, Hercules, Calif.) at 100 V for 60 minutes. The gel was stained with 1×SYBR safe (Invitrogen, Carlsbad, Calif.) in TBE buffer^71 for 30 minutes before visualization using a EOS Rebel T5 DSLR camera with an f/3.5-5.6 18-55 mm lens (Canon, Huntington, N.Y.) and a DR46B Transilluminator (Clare Chemical, Dolores, Colo.)."}, "E. coli [4]": {"tested_on": "E. coli", "assay": "Chromosomal analysis using SYTOX and HupA-mRuby2", "format": "cell-based, Escherichia coli", "conditions": "10 μg/mL H2A, 2 μM LL-37 or both; 3 hours", "protocol": "MG1655 or XL-1 Blue expressing HupA-mRuby2 was cultured to OD600 of 0.2, diluted 1:20 into fresh MinA minimal medium, and treated with 2 μM LL-37, 10 μg/mL H2A or both LL-37 and H2A for 30 minutes. For SYTOX visualization, MG1655 were stained with 3 uM SYTOX Green nucleic acid stain (ThermoFisher, Waltham, Mass.) for 10 minutes. Cells were immobilized on agarose pads containing 2 uM LL-37, 10 μg/mL H2A, or both LL-37 and H2A, and remained on the pad for 3 hours before imaging using the fluorescence microscopy. For SYTOX analysis, pads additionally contained 5 uM SYTOX Green. Raw images were analyzed through principal component analysis using our own custom-written image analysis tools^67,68 version 1.1 and modified in Matlab (Version R2017b; Mathworks, Natick, Mass.). See ‘Code Availability’ section below for code. Individual cells were identified in phase contrast images using canny edge detection and using SuperSegger^70. […] The covariances between corresponding pixels of different cells were computed using the 16 bit intensity values from the rotated and resized fluorescence images and for the same images rotated by an additional 180 degrees. […] The size of each bin was determined by subtracting the minimum principal component score from the maximum principal component score and dividing that by the number of bins along that principal component. […]"}, "E. coli [5]": {"tested_on": "E. coli", "assay": "In vivo transcription assay (tet-inducible mCherry)", "format": "cell-based, Escherichia coli", "conditions": "1-hour pre-treatment with 10 μg/mL H2A, 2 μM LL-37 or both; anhydrotetracycline 1 hour", "protocol": "To determine how histone entry into the bacterial cell impacts transcription, MAL190 was cultured to mid-exponential phase, diluted 1:20 in MinA minimal medium, treated with 10 μg/mL Histone H2A and/or 2 μM LL-37, incubated for 1 hour, and induced for transcription using 50 ng/mL of anhydrotetracycline. The fluorescence of mCherry was measured after 1 hour using fluorescence microscopy."}, "E. coli [6]": {"tested_on": "E. coli", "assay": "SEM imaging of E. coli", "format": "cell-based, Escherichia coli", "conditions": "10 μg/mL H2A, 1 μM LL-37 or both; 1 hour; 1 mM magnesium", "protocol": "MG1655 was cultured to an OD600 of 0.2, diluted 1:20, and supplemented with 10 μg/mL H2A and/or 1 μM LL-37. Cells were treated for 1 hour and added to a glass bottomed petri dish for 15 minutes. Due to lower levels of adhesion, control cells were not diluted 1:20 and were incubated in the glass-bottomed petri dish for 45 minutes. Media was removed and 4% paraformaldehyde (PFA) was added for 20 minutes to fix bacteria. Dehydration was performed using serial ethanol dilutions. The fixed and dehydrated samples were coated with 10 nm of iridium using an ACE600 sputter coater (Leica Microsystems, Buffalo Grove, Ill.). Bacteria and surfaces were then characterized using a FEI Magellan 400 XHR Scanning Electron Microscope (FEI Company, Hillsboro, Oreg.) at a 45° tilt angle with an acceleration voltage of 3 kV."}, "E. coli [7]": {"tested_on": "E. coli", "assay": "Cell aggregate size and cell size analysis", "format": "cell-based, Escherichia coli", "protocol": "MG1655 were cultured to an OD600 of 0.2, diluted 1:20 into fresh MinA minimal medium, treated with 0-4 μM LL-37 or 0-100 μg/mL H2A, and incubated for 1 hour. Cells were immobilized on an agarose pad using, imaged using phase contrast microscopy, and analyzed using our own custom-written image analysis tools^67,68. version 1.1 that was written in Matlab (Version R2017b; Mathworks, Natick, Mass.). See ‘Code Availability’ section below to download code. The total pixel area of each individual cell was determined by computing the mask area and converting from pixels to μm^2 by multiplying the mask area by a factor of 0.00422 μm^2/pixel to account for the microscope camera pixel size and objective magnification."}, "E. coli [8]": {"tested_on": "E. coli", "conditions": "E. coli after 12 hours; reported (ref. 36); cited from earlier work"}}, "note": "“Also recorded” adds a separate entry of the source."}
{"compound": "LL-37: human cathelicidin antimicrobial peptide LL-37 (Anaspec)", "values": [{"measurement": "E. coli growth (growth rate, lag time)", "setting": "E. coli [1]", "value": "decreased the growth rate and slightly extended the lag time"}, {"measurement": "AF-H2A uptake (cellular fluorescence)", "setting": "E. coli [2]", "value": "significantly enhanced AF-H2A uptake"}, {"measurement": "LL-37 uptake (5-FAM-LL-37 fluorescence)", "setting": "E. coli [2]; fluorescently-labeled LL-37 alone or with 10 μg/mL H2A", "value": "Fluorescence was observed in the cytoplasm"}, {"measurement": "CFP fluorescence / growth during 1-hour recovery period", "setting": "E. coli [3]; 1-hour treatment with 10 μg/mL H2A, 1 μM LL-37, 10 μM MAG2, alone or combined", "value": "resumed growth and division and retained expression of CFP; also recorded: CFP fluorescence increased or remained the same"}, {"measurement": "PI fluorescence during 1-hour recovery", "setting": "E. coli [3]; 1-hour treatment with H2A, LL-37, MAG2, alone or combined", "value": "significantly lower"}, {"measurement": "migration / retention of E. coli DNA in gel", "setting": "E. coli genomic DNA", "value": "less retention of bacterial DNA"}, {"measurement": "HupA-mRuby2 localization", "setting": "E. coli [4]", "value": "condensed the fluorescence near the center of the cell"}, {"measurement": "chromosome localization pattern (Sytox Green)", "setting": "E. coli [4]", "value": "no significant change in localization"}, {"measurement": "mCherry fluorescence (transcription induction)", "setting": "E. coli [5]", "value": "little effect on mCherry fluorescence"}, {"measurement": "cell morphology by SEM", "setting": "E. coli [6]", "value": "few cell morphological differences"}, {"measurement": "aggregation of cells", "setting": "E. coli [7]; H2A or LL-37, 1 hour", "value": "did not induce aggregation"}, {"measurement": "cell size", "setting": "E. coli [7]; LL-37 alone, indicated concentrations, 1 hour", "value": "significant reduction in cell size"}, {"measurement": "bulk minimum inhibitory concentration (MIC)", "setting": "E. coli [8]", "value": 2, "unit": "µM"}]}
{"compound": "polymyxin B [PMB, reference compound]", "values": [{"measurement": "E. coli growth (growth rate, lag time)", "setting": "E. coli [1]", "value": "slightly inhibited growth"}, {"measurement": "AF-H2A uptake (cellular fluorescence)", "setting": "E. coli [2]", "value": "significantly enhanced AF-H2A uptake"}]}
{"compound": "O=C(N[C@H](CO)[C@H](O)c1ccc([N+](=O)[O-])cc1)C(Cl)Cl", "note": "[chloramphenicol, reference compound]", "values": [{"measurement": "E. coli growth (growth rate, lag time)", "setting": "E. coli [1]", "value": "increased the growth lag time"}, {"measurement": "AF-H2A uptake (cellular fluorescence)", "setting": "E. coli [2]", "value": "did not induce AF-H2A uptake"}]}
